The source of these data is patent publication US10881110B2, “Herbicidal compositions comprising isoxazolo[5,4-b]pyridines” (BASF SE, priority 2014, dated 2021).

Assay in all cases: greenhouse post-emergence herbicidal test
One experiment concerns ABUTH. The class given is in vivo, Abutilon theophrast. The arrangement: key to herbicidal activity against ABUTH found: rating on a scale from 0 to 100. The settings on record: post emergence, I.1 62.5 g/ha. In short, it runs like this: (§1)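 Post-emergence greenhouse test: plants in loamy sand, sprayed at 1–15 cm height with aqueous spray liquor from 10% emulsion concentrates, kept at 10-25 °C or 20-35 °C by species. Damage scored 0–100 (100 = complete destruction), usually 20 days after treatment. Expected additive effect E from Colby: E=X+Y−(X·Y/100).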

For a further experiment, the system named is ECHCG. The experiment is classed as in vivo, Echinochloa crus-galli. On the set-up: key to herbicidal activity against ECHCG found / herbicidal activity against ECHCH found: scale 0 to 100. Particulars: for herbicidal activity against ECHCG found: B.167 125 g/ha a.i. How it is done: (§2) The culture containers used were plastic pots containing medium loamy sand with approximately 4.6% of humus and 69.9% sand as substrate. The seeds of the test plants were sown separately for each species.
(§3) For the post-emergence treatment, the test plants were grown to a plant height of from 1 to 15 cm, depending on the plant habit, and only then treated with the active compounds which had been suspended or emulsified in water. To this end, the test plants were either sown directly, and grown in the same containers, or they were first grown separately as seedlings and transplanted into the test containers a few days prior to treatment.
(§4) Depending on the species, the plants were kept at 10-25° C. and 20-35° C., respectively.
(§5) The test period extended over 1 to 3 weeks. During this time, the plants were tended and their response to the individual treatments was evaluated 20 days after treatment except mentioned otherwise.
(§6) Evaluation was carried out using a scale from 0 to 100. 100 means no emergence of the plants, or complete destruction of at least the above-ground parts, and 0 means no damage or normal course of growth.
(§7) The respective stated components A and B, and, if appropriate, C, were formulated as a 10% by weight strength emulsion concentrate and, with addition of the amount of solvent system, introduced into the spray liquor used for applying the active compound. In the examples, the solvent used was water.
(§8) In the examples below, using the method of S. R. Colby (1967) “Calculating synergistic and antagonistic responses of herbicide combinations”, Weeds 15, p. 22 ff., the value E, which is expected if the activity of the individual active compounds is only additive, was calculated. E=X+Y−(X·Y/100)

The test system of another experiment is GERDI. The experiment is classed as in vivo, Geranium dissectum. The arrangement: key to herbicidal activity against GERDI found: rating on a scale from 0 to 100. In outline:
as §1

For the next experiment, the system named is KCHSC. The experiment is classed as in vivo, Kochia scoparia. On the set-up: key to herbicidal activity against KCHSC found: rating on a scale from 0 to 100. The settings on record: for herbicidal activity against KCHSC found: B.167 62.5 g/ha a.i. How it is done: as §2, §3, §4, §5, §6, §7, §8
In the next experiment the test system is MATCH. The class given is in vivo, Matricaria recutita. The arrangement: key to herbicidal activity against MATCH found: rating on a scale from 0 to 100. Particulars: for herbicidal activity against MATCH found: I.1 62.5 g/ha. In short, it runs like this:
as §1

The test system of another experiment is POLCO. The experiment is classed as in vivo, Polygonum convolvulus. On the set-up: key to herbicidal activity against POLCO found: rating on a scale from 0 to 100. In short, it runs like this:
(§9)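 Herbicidal activity scored on a 0 (no damage) to 100 (plants destroyed) scale, usually 20 days after water-based spraying of 1–15 cm plants grown in loamy sand at 10-25 °C or 20-35 °C depending on species. Components were applied from 10% emulsion concentrates; Colby's E=X+Y−(X·Y/100) gives the additive expectation.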

For the next experiment, the system named is ALOMY. The experiment is classed as in vivo, Alopecurus myosuroides. Particulars: Alopecurus myosuroides, post-emergence, 480 h, post emergence, read-out: herbicidal activity against ALOMY found. In outline: as §1
Another experiment has as its system ERICA. The experiment is classed as in vivo, Conyza canadensis. The settings on record: Erigeron canadensis, post-emergence, 480 h, read-out: herbicidal activity against ERICA found. In short, it runs like this:
as §1

A further experiment relates to GALAP. The experiment is classed as in vivo, Galium aparine. The settings on record: Galium aparine, post-emergence, 480 h, post emergence; aclonifen 250 g/ha a.i.; read-out: herbicidal activity against GALAP found. In outline:
as §9

For another experiment, the system named is VIOAR. The class given is in vivo, Viola arvensis. The settings on record: Viola arvensis, post-emergence, read-out: herbicidal activity against VIOAR found. In short, it runs like this:
as §9

A further experiment deals with APESV. The class given is in vivo, Apera spica-venti. The settings on record: Apera spica-venti, post-emergence, 480 h, post emergence, read-out: herbicidal activity against APESV found. In short, it runs like this:
as §1

The test system of another experiment is IPOHE. The experiment is classed as in vivo, Ipomoea hederacea. Particulars: Ipomoea hederacea, post-emergence, 480 h, single active, 50 g/ha a.i., post emergence; read-out: herbicidal activity against IPOHE found. How it is done: as §2, §3, §4, §5, §6, §7, §8
[1] abbreviates: post emergence, I.1 62.5 g/ha, B.167 125 g/ha a.i.
Setting [2] is: single active, 50 g/ha a.i., post emergence.

Consider `O=C(O)c1c(Cl)ccc2cc(Cl)cnc12` [B.167, quinclorac], for which the “herbicidal activity against ABUTH found” value in the experiment on ABUTH (B.167 62.5 g/ha a.i.) is given as 65; with ABUTH (B.167 125 g/ha a.i.), 70. Moreover, the “herbicidal activity against ECHCG found” value in the experiment with ECHCG (post emergence, I.1 15.62 g/ha) was 20; with ECHCG (post emergence, I.1 31.25 g/ha), 20. Besides, in the experiment with GERDI (setting [1]), the “herbicidal activity against GERDI found” value is 0. Also, the “herbicidal activity against KCHSC found” value in the experiment with KCHSC (post emergence, I.1 31.25 g/ha) amounted to 0; with KCHSC (post emergence, I.1 62.5 g/ha), 0. The “herbicidal activity against MATCH found” value with MATCH (post emergence, B.167 62.5 g/ha a.i.) stood at 0; in the experiment on MATCH (post emergence, B.167 125 g/ha a.i.) it was 30. The “herbicidal activity against POLCO found” value with POLCO (post emergence, I.1 15.62 g/ha, B.167 62.5 g/ha a.i.) was 0; with POLCO (post emergence, I.1 15.62 g/ha, B.167 125 g/ha a.i.), 30; with POLCO (post emergence, I.1 62.5 g/ha, B.167 62.5 g/ha a.i.), 0; in the experiment on POLCO (setting [1]), 30.
As for `Nc1c([N+](=O)[O-])ccc(Oc2ccccc2)c1Cl` [aclonifen], the pest or weed control at 250 g/ha in the experiment on ALOMY (aclonifen 250 g/ha a.i.) was determined as 30%; with ECHCG (Echinochloa crus-galli, post-emergence, 480 h, post emergence, aclonifen 250 g/ha a.i., read-out: herbicidal activity against ECHCG found) it was 50%; in the experiment with GALAP, 80%; in the experiment with GERDI (Geranium dissectum, post-emergence, 480 h, post emergence, aclonifen 250 g/ha a.i., read-out: herbicidal activity against GERDI found), 30%; with MATCH (Matricaria chamomilla, post-emergence, 480 h, post emergence, aclonifen 250 g/ha a.i., read-out: herbicidal activity against MATCH found), 0%; in the experiment on POLCO (Fallopia convolvulus, post-emergence, 480 h, post emergence, aclonifen 250 g/ha a.i., read-out: herbicidal activity against POLCO found) it was 85%. The pest or weed control at 500 g/ha with ALOMY (aclonifen 500 g/ha a.i.) came to 60%; in the experiment with ECHCG (Echinochloa crus-galli, post-emergence, 480 h, post emergence, aclonifen 500 g/ha a.i., read-out: herbicidal activity against ECHCG found), 80%; in the experiment with ERICA (post emergence, aclonifen 500 g/ha a.i.) it was 0%; in the experiment with GERDI (Geranium dissectum, post-emergence, 480 h, post emergence, aclonifen 500 g/ha a.i., read-out: herbicidal activity against GERDI found) it was 70%; in the experiment on MATCH (Matricaria chamomilla, post-emergence, 480 h, post emergence, aclonifen 500 g/ha a.i., read-out: herbicidal activity against MATCH found), 0%; in the experiment with POLCO (Fallopia convolvulus, post-emergence, 480 h, post emergence, aclonifen 500 g/ha a.i., read-out: herbicidal activity against POLCO found), 95%. The pest or weed control at 1000 g/ha with ALOMY (aclonifen 1000 g/ha a.i.) was determined as 70%; with ERICA (post emergence, aclonifen 1000 g/ha a.i.) it was 0%; in the experiment with MATCH (Matricaria chamomilla, post-emergence, 480 h, post emergence, aclonifen 1000 g/ha a.i., read-out: herbicidal activity against MATCH found) it was 0%; in the experiment on POLCO (Fallopia convolvulus, post-emergence, 480 h, post emergence, aclonifen 1000 g/ha a.i., read-out: herbicidal activity against POLCO found), 85%.
As to `CS(=O)(=O)c1ccc(C(=O)C2C(=O)CCCC2=O)c(Cl)c1` [B.104, sulcotrione], the pest or weed control at 15 g/ha in the experiment on ECHCG (Echinochloa crus-galli, post-emergence, 480 h, read-out: herbicidal activity against ECHCG found) turned out to be 80%; with ERICA, 75%; in the experiment on GERDI (Geranium dissectum, post-emergence, 480 h, read-out: herbicidal activity against GERDI found), 45%; in the experiment on KCHSC (Bassia scoparia, post-emergence, 480 h, read-out: herbicidal activity against KCHSC found), 90%; in the experiment on MATCH (Matricaria chamomilla, post-emergence, 480 h, read-out: herbicidal activity against MATCH found), 10%; with POLCO (Fallopia convolvulus, post-emergence, 480 h, read-out: herbicidal activity against POLCO found) it was 90%. Further, in the experiment on VIOAR, the pest or weed control at 15 g/ha came to 85%.
As to `Cc1cnc2c(C(=O)O)c(Cl)ccc2c1` [B.169, quinmerac], the pest or weed control at 62.5 g/ha in the experiment with ALOMY (B.169 62.5 g/ha a.i.) was found to be 0%; in the experiment with APESV (B.169 62.5 g/ha a.i.), 0%; in the experiment on ECHCG (Echinochloa crus-galli, post-emergence, 480 h, post emergence, B.169 62.5 g/ha a.i., read-out: herbicidal activity against ECHCG found) it was 0%; in the experiment with ERICA (post emergence, B.169 62.5 g/ha a.i.), 65%; with KCHSC (Bassia scoparia, post-emergence, 480 h, post emergence, B.169 62.5 g/ha a.i., read-out: herbicidal activity against KCHSC found), 10%. Also, the pest or weed control at 125 g/ha in the experiment with ERICA (post emergence, B.169 125 g/ha a.i.) was determined as 75%; in the experiment with KCHSC (Bassia scoparia, post-emergence, 480 h, post emergence, B.169 125 g/ha a.i., read-out: herbicidal activity against KCHSC found), 25%.
With `CC(C)N(C(=O)COc1nnc(C(F)(F)F)s1)c1ccc(F)cc1` [B.130, flufenacet], the pest or weed control at 50 g/ha in the experiment on ALOMY (single active, 50 g/ha a.i.) stood at 40%; in the experiment on APESV (single active, 50 g/ha a.i.) it was 85%; with ERICA (setting [2]) it was 0%; in the experiment on GERDI (Geranium dissectum, post-emergence, 480 h, single active, 50 g/ha a.i., post emergence, read-out: herbicidal activity against GERDI found), 10%; in the experiment on IPOHE, 60%; with KCHSC (Bassia scoparia, post-emergence, 480 h, single active, 50 g/ha a.i., post emergence, read-out: herbicidal activity against KCHSC found) it was 0%. Further, the pest or weed control at 50 g/ha with MATCH (Matricaria chamomilla, post-emergence, 480 h, single active, 50 g/ha a.i., post emergence, read-out: herbicidal activity against MATCH found) was 0%; in the experiment on POLCO (Fallopia convolvulus, post-emergence, 480 h, single active, 50 g/ha a.i., post emergence, read-out: herbicidal activity against POLCO found) it was 10%; with VIOAR (setting [2]), 80%. Moreover, the pest or weed control at 100 g/ha in the experiment with ALOMY (single active, 100 g/ha a.i.) worked out at 65%; in the experiment with ECHCG (Echinochloa crus-galli, post-emergence, 480 h, single active, 100 g/ha a.i., post emergence, read-out: herbicidal activity against ECHCG found) it was 65%; in the experiment on GERDI (Geranium dissectum, post-emergence, 480 h, single active, 100 g/ha a.i., post emergence, read-out: herbicidal activity against GERDI found), 10%; with MATCH (Matricaria chamomilla, post-emergence, 480 h, single active, 100 g/ha a.i., post emergence, read-out: herbicidal activity against MATCH found), 20%; in the experiment on POLCO (Fallopia convolvulus, post-emergence, 480 h, single active, 100 g/ha a.i., post emergence, read-out: herbicidal activity against POLCO found), 10%.
